Columns and labels:
[1] = molecular target: T1, GTPase KRas (Homo sapiens, UniProt P01116, G12D); experiment: Inhibition of KRAS G12D mutant (unknown origin) assessed as inhibition of SOS1 mediated nucleotide exchange of bodipy-GDP for GppNHp incubated for 4 hrs by fluorescence based analysis
[2] = molecular target: GTPase KRas (Homo sapiens, UniProt P01116, G12V); experiment: Inhibition of KRAS G12V mutant (unknown origin) assessed as inhibition of SOS1 mediated nucleotide exchange of bodipy-GDP for GppNHp incubated for 3 hrs by fluorescence based analysis
[3] = molecular target: T1, GTPase KRas; experiment: Inhibition of KRAS G12D mutant in human HPAF-II cells assessed as reduction in ERK phosphorylation by Western blot analysis; format: cell-based

T1 sequence (P01116 whole entry G12D): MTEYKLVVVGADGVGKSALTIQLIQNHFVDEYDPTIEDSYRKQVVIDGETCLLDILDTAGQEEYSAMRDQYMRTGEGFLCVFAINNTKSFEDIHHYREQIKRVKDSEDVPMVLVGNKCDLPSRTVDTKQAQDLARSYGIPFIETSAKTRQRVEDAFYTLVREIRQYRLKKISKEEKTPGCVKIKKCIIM
GTPase KRas (Homo sapiens, UniProt P01116, G12V), sequence (P01116 whole entry G12V): as the sequence (P01116 whole entry G12D) above, with D12V counted along it

Row | IC50 [1] [µM] | IC50 [2] [µM] | IC50 [3] [µM] | SMILES
1 | ≤ 0.1 | ≤ 0.1 |  | C[C@H](Oc1nc2c(F)c(-c3cccc(Cl)c3Cl)c(CCC#N)cc2c2c1c(=O)c(N1CCCC1=O)cn2[C@@H]1[C@@H]2CN[C@H]1C2)[C@H]1CCCN1C
2 | ≤ 0.1 | ≤ 0.1 | ≤ 0.1 | Cc1cc2c(nc(O[C@@H](C)[C@H]3CCCN3C)c3c(=O)ccn([C@@H]4[C@@H]5CN[C@H]4C5)c32)c(F)c1-c1cccc2c1C(C#N)CCC2 (some centres not stated)
3 | ≤ 0.1 | ≤ 0.1 | ≤ 0.1 | C[C@H](Oc1nc2c(F)c(-c3c[nH]c4ccccc34)c(CCC#N)cc2c2c1NC(=O)CN2C1C2CNC1C2)[C@@H]1CCCN1C (some centres not stated)
4 | ≤ 0.1 | ≤ 0.1 | ≤ 0.1 | C[C@H](Oc1nc2c(F)c(-c3cc(O)cc4ccc(F)cc34)c(CCC#N)cc2c2c1NC(=O)CN2C1C2CNC1C2)[C@@H]1CCCN1C (some centres not stated)
5 | ≤ 0.1 | ≤ 0.1 | ≤ 0.1 | C[C@H](Oc1nc2c(F)c(-c3cccc4ccc(F)cc34)c(CCC#N)cc2c2c1NC(=O)CN2C1C2CNC1C2)[C@@H]1CCCN1C (some centres not stated)
6 | ≤ 0.1 | ≤ 0.1 | ≤ 0.1 | C[C@@H](Oc1nc2c(F)c(-c3cc(O)cc4ccccc34)c(CCC#N)cc2c2c1CCCN2C1C2CNC1C2)[C@H]1CCCN1C (some centres not stated)
